Assay: xn = mol fraction of the nth substance listed

c1ccccc1 + Cc1ccccc1
Details | viscosity [mPa·s]
293.15 K, 100 kPa, x2 = 0.25 | 0.631
293.15 K, 101 kPa, x1 = 0.28 | 0.584
293.15 K, 101 kPa, x1 = 0.54 | 0.597
293.15 K, 101 kPa, x1 = 0.78 | 0.607
293.15 K, 101.33 kPa, x1 = 0.1688 | 0.575
293.15 K, 101.33 kPa, x1 = 0.4383 | 0.592
293.15 K, 101.33 kPa, x1 = 0.5149 | 0.599
293.15 K, 101.33 kPa, x1 = 0.6583 | 0.606
293.15 K, 101.33 kPa, x1 = 0.7819 | 0.617
294.15 K, 100 kPa, x2 = 0.75 | 0.621
294.65 K, 101.33 kPa, x2 = 0.83 | 0.6216
294.75 K, 101.33 kPa, x2 = 0.202 | 0.6571
294.95 K, 101.33 kPa, x2 = 0.62 | 0.6245
295.55 K, 101.33 kPa, x2 = 0.508 | 0.6234
295.65 K, 101.33 kPa, x2 = 0.107 | 0.6473
295.85 K, 101.33 kPa, x2 = 0.272 | 0.6379
296.05 K, 101.33 kPa, x2 = 0.386 | 0.6282
297.35 K, 101.33 kPa, x2 = 0.719 | 0.6066
298.15 K, 101 kPa, x1 = 0.1 | 0.5546
298.15 K, 101 kPa, x1 = 0.1153 | 0.556
298.15 K, 101 kPa, x1 = 0.1272 | 0.555
298.15 K, 101 kPa, x1 = 0.2 | 0.5566
298.15 K, 101 kPa, x1 = 0.2022 | 0.5584
298.15 K, 101 kPa, x1 = 0.28 | 0.556
298.15 K, 101 kPa, x1 = 0.2965 | 0.5613
298.15 K, 101 kPa, x1 = 0.3 | 0.5595
298.15 K, 101 kPa, x1 = 0.3423 | 0.558
298.15 K, 101 kPa, x1 = 0.4 | 0.5632
298.15 K, 101 kPa, x1 = 0.4076 | 0.5651
298.15 K, 101 kPa, x1 = 0.5 | 0.5678
298.15 K, 101 kPa, x1 = 0.54 | 0.566
298.15 K, 101 kPa, x1 = 0.5405 | 0.5703
298.15 K, 101 kPa, x1 = 0.6 | 0.5732
298.15 K, 101 kPa, x1 = 0.7 | 0.5794
298.15 K, 101 kPa, x1 = 0.7024 | 0.579
298.15 K, 101 kPa, x1 = 0.7237 | 0.5802
298.15 K, 101 kPa, x1 = 0.78 | 0.574
298.15 K, 101 kPa, x1 = 0.8 | 0.5864
298.15 K, 101 kPa, x1 = 0.8593 | 0.5888
298.15 K, 101 kPa, x1 = 0.9 | 0.594
298.15 K, 101 kPa, x1 = 0.9275 | 0.594
298.15 K, 101 kPa, x1 = 0.9637 | 0.5968
298.15 K, 101.33 kPa, x1 = 0.0655 | 0.5543
298.15 K, 101.33 kPa, x1 = 0.0991 | 0.5554
298.15 K, 101.33 kPa, x1 = 0.2566 | 0.5591
298.15 K, 101.33 kPa, x1 = 0.3969 | 0.5652
298.15 K, 101.33 kPa, x1 = 0.5481 | 0.572
298.15 K, 101.33 kPa, x1 = 0.6618 | 0.5783
298.15 K, 101.33 kPa, x1 = 0.8029 | 0.5874
298.15 K, 101.33 kPa, x1 = 0.9087 | 0.5951
303.15 K, 101 kPa, x1 = 0.28 | 0.525
303.15 K, 101 kPa, x1 = 0.54 | 0.531
303.15 K, 101 kPa, x1 = 0.78 | 0.539
303.15 K, 101.3 kPa, x1 = 0.0529 | 0.5206
303.15 K, 101.3 kPa, x1 = 0.1185 | 0.522
303.15 K, 101.3 kPa, x1 = 0.2615 | 0.5257
303.15 K, 101.3 kPa, x1 = 0.3482 | 0.5277
303.15 K, 101.3 kPa, x1 = 0.4486 | 0.5312
303.15 K, 101.3 kPa, x1 = 0.5963 | 0.5372
303.15 K, 101.3 kPa, x1 = 0.7138 | 0.5426
303.15 K, 101.3 kPa, x1 = 0.8413 | 0.5482
303.15 K, 101.3 kPa, x1 = 0.9558 | 0.5538
303.15 K, 101.33 kPa, x1 = 0.1688 | 0.509
303.15 K, 101.33 kPa, x1 = 0.4383 | 0.523
303.15 K, 101.33 kPa, x1 = 0.5149 | 0.526
303.15 K, 101.33 kPa, x1 = 0.6583 | 0.529
303.15 K, 101.33 kPa, x1 = 0.7819 | 0.54
303.15 K, 101.33 kPa, x2 = 0.1 | 0.587
303.15 K, 101.33 kPa, x2 = 0.2 | 0.576
303.15 K, 101.33 kPa, x2 = 0.402 | 0.563
303.15 K, 101.33 kPa, x2 = 0.6 | 0.551
303.15 K, 101.33 kPa, x2 = 0.8 | 0.539
303.15 K, 101.33 kPa, x2 = 0.899 | 0.53
305.15 K, 101.33 kPa, x2 = 0.83 | 0.5517
305.35 K, 101.33 kPa, x2 = 0.508 | 0.5535
305.35 K, 101.33 kPa, x2 = 0.719 | 0.554
305.55 K, 101.33 kPa, x2 = 0.107 | 0.5782
305.55 K, 101.33 kPa, x2 = 0.62 | 0.5525
305.65 K, 101.33 kPa, x2 = 0.202 | 0.57
305.75 K, 101.33 kPa, x2 = 0.386 | 0.5579
308.15 K, 101 kPa, x1 = 0.54 | 0.502
308.15 K, 101 kPa, x1 = 0.78 | 0.506
308.15 K, 101.33 kPa, x2 = 0.1 | 0.564
308.15 K, 101.33 kPa, x2 = 0.2 | 0.556
308.15 K, 101.33 kPa, x2 = 0.402 | 0.541
308.15 K, 101.33 kPa, x2 = 0.6 | 0.532
308.15 K, 101.33 kPa, x2 = 0.8 | 0.518
308.15 K, 101.33 kPa, x2 = 0.899 | 0.507
312.85 K, 101.33 kPa, x2 = 0.107 | 0.5215
312.95 K, 101.33 kPa, x2 = 0.202 | 0.5201
312.95 K, 101.33 kPa, x2 = 0.272 | 0.5187
313.05 K, 101.33 kPa, x2 = 0.719 | 0.5077
313.15 K, 101 kPa, x1 = 0.28 | 0.472
313.15 K, 101 kPa, x1 = 0.54 | 0.476
313.15 K, 101 kPa, x1 = 0.78 | 0.48
313.15 K, 101.33 kPa, x1 = 0.1688 | 0.456
313.15 K, 101.33 kPa, x1 = 0.4383 | 0.463
313.15 K, 101.33 kPa, x1 = 0.6583 | 0.471
313.15 K, 101.33 kPa, x1 = 0.7819 | 0.479
313.15 K, 101.33 kPa, x2 = 0.1 | 0.55
313.15 K, 101.33 kPa, x2 = 0.2 | 0.529
313.15 K, 101.33 kPa, x2 = 0.402 | 0.517
313.15 K, 101.33 kPa, x2 = 0.6 | 0.505
313.15 K, 101.33 kPa, x2 = 0.8 | 0.491
313.15 K, 101.33 kPa, x2 = 0.899 | 0.483
313.25 K, 101.33 kPa, x2 = 0.386 | 0.51
313.35 K, 101.33 kPa, x2 = 0.508 | 0.5064
313.45 K, 101.33 kPa, x2 = 0.62 | 0.5057
313.45 K, 101.33 kPa, x2 = 0.83 | 0.5068
318.15 K, 101.33 kPa, x2 = 0.1 | 0.531
318.15 K, 101.33 kPa, x2 = 0.2 | 0.517
318.15 K, 101.33 kPa, x2 = 0.402 | 0.5
318.15 K, 101.33 kPa, x2 = 0.6 | 0.484
318.15 K, 101.33 kPa, x2 = 0.8 | 0.471
318.15 K, 101.33 kPa, x2 = 0.899 | 0.464
322.55 K, 101.33 kPa, x2 = 0.719 | 0.464
322.85 K, 101.33 kPa, x2 = 0.83 | 0.4607
322.95 K, 101.33 kPa, x2 = 0.202 | 0.4648
323.05 K, 101.33 kPa, x2 = 0.62 | 0.4581
323.15 K, 100 kPa, x2 = 0.25 | 0.431
323.15 K, 100 kPa, x2 = 0.5 | 0.427
323.15 K, 100 kPa, x2 = 0.75 | 0.424
323.15 K, 101.33 kPa, x1 = 0.1688 | 0.411
323.15 K, 101.33 kPa, x1 = 0.4383 | 0.416
323.15 K, 101.33 kPa, x1 = 0.5149 | 0.42
323.15 K, 101.33 kPa, x1 = 0.6583 | 0.423
323.15 K, 101.33 kPa, x1 = 0.7819 | 0.424

From the CheMixHub viscosity set
